These results are taken from patent US20260062422A1 (Halda Therapeutics OpCo, Inc., priority 2022, published 2026).

The test system of one assay is T47D cells. The experiment in a line: Cellular growth inhibition assay for T47D cells, CellTiter-Glo. The class given is cell-based, human. The note with it: Homo sapiens, T47D, 72 h, 72 hours treatment, CellTiter-Glo 2.0 cell viability. The method in brief: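 Cells are plated at 3000/well and allowed 24 h before treatment. Test compound in medium containing 0.5% DMSO is then added, with DMSO-only wells as negative control, and plates are incubated 72 h at 37 °C. ATP luminescence (CellTiter-Glo 2.0) is then fitted to four parameters to derive GI50.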
For orientation: Cellular ATP, detected with luciferase, serves as a proxy for viable cell number.

In another assay the test system is VCaP cells. The experiment in a line: Cellular growth inhibition assay for VCaP cells, CellTiter-Glo. The assay is classed as cell-based, human. Conditions: Homo sapiens, VCaP, 72 h, 72 hours treatment, CellTiter-Glo 2.0. In short, it runs like this:
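GI50 values come from four-parameter curve fits of luminescence data normalized to a zero baseline. Compound, in medium with 0.5% DMSO, was added one day after plating and left for 72 h before CellTiter-Glo 2.0 addition.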

The test system of assay [1] is T-Rex 293 cell line SC3 cells having increased expression of androgen receptor protein due to exposure to doxycycline. The experiment in a line: Cellular growth inhibition, T-Rex 293 SC3 cells with doxycycline (androgen receptor induced), CellTiter-Glo. The assay is classed as cell-based. Conditions: 72 h, T-Rex 293 SC3 cells with 10 ng/mL doxycycline (increased androgen receptor expression). In short, it runs like this:
(§1)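 Cells of clone SC3 are seeded in charcoal-dextran-stripped serum medium with or without 10 ng/mL doxycycline to induce wild-type androgen receptor. After 24 h, serial compound dilutions are added at 0.5% DMSO and incubated 72 h at 37 °C. CellTiter-Glo 2.0 measures viability, giving GI50 values.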

For assay [2], the system named is T-Rex 293 cell line SC3 cells lacking increased expression of androgen receptor protein. The experiment in a line: Cellular growth inhibition, T-Rex 293 SC3 cells without doxycycline, CellTiter-Glo. The assay is classed as cell-based. Conditions: 72 h, T-Rex 293 SC3 cells not exposed to doxycycline, CellTiter-Glo 2.0. In short, it runs like this: as §1

Bounds are passed on as bounds.

For `Cc1sc2c(c1C)C(c1ccc(C(=O)N3CCC[C@H](C(=O)c4ncc(C(=O)N[C@H]5C(C)(C)[C@H](Oc6ccc(C#N)c(Cl)c6)C5(C)C)cn4)C3)cc1)=N[C@@H](Cc1ncco1)c1nnc(C)n1-2` [Compound I-345], the GI50 (in general, the concentration that inhibits growth by half) in the assay with T47D cells was 1500 to 3000 nM; in the assay with VCaP cells it was over 3000 nM; in assay [1], over 3000 nM; in assay [2], over 3000 nM.
Take `Cc1sc2c(c1C)C(c1ccc(C(=O)N3CCCC(C(=O)c4ncc(C(=O)N[C@H]5C(C)(C)[C@H](Oc6ccc(C#N)c(Cl)c6)C5(C)C)cn4)C3)cc1)=N[C@H](Cc1ncco1)c1nnc(C)n1-2` (stereo partly drawn) [Compound I-346]: the GI50 was over 3000 nM in the assay on T47D cells, 500 to 1500 nM in the assay with VCaP cells, under 500 nM in assay [1] and over 3000 nM in assay [2].
`Cc1sc2c(c1C)C(c1ccc(COC3CCN(c4ncc(C(=O)N[C@H]5C(C)(C)[C@H](Oc6ccc(C#N)c(Cl)c6)C5(C)C)cn4)CC3)cc1)=N[C@@H](C)c1nnc(C)n1-2` [Compound I-347]: the GI50 (in the assay with T47D cells; in the assay with VCaP cells; in assay [1]; in assay [2]) was over 3000 nM throughout.
For `Cc1sc2c(c1C)C(c1ccc(CCCN3CC4(C3)CN(c3ncc(C(=O)N[C@H]5C(C)(C)[C@H](Oc6ccc(C#N)c(Cl)c6)C5(C)C)cn3)C4)cc1)=N[C@@H](C)c1nnc(C)n1-2` [Compound I-348], the 50% growth inhibitory concentration (GI50) in the assay on T47D cells is under 500 nM; in the assay on VCaP cells, under 500 nM; in assay [1] it was under 500 nM; in assay [2], 1500 to 3000 nM.
For the compound `Cc1sc2c(c1C)C(c1ccc(C#CC3CC4(C3)CN(c3ncc(C(=O)N[C@H]5C(C)(C)[C@H](Oc6ccc(C#N)c(Cl)c6)C5(C)C)cn3)C4)cc1)=N[C@@H](C)c1nnc(C)n1-2` [Compound I-349], the GI50 (with T47D cells; with VCaP cells; in assay [1]; in assay [2]) was under 500 nM each time.
Regarding `Cc1sc2c(c1C)C(c1ccc(OC[C@H]3C[C@]4(CCCN(c5ncc(C(=O)N[C@H]6C(C)(C)[C@H](Oc7ccc(C#N)c(Cl)c7)C6(C)C)cn5)C4)C3)cc1)=N[C@@H](C)c1nnc(C)n1-2` [Compound I-350], the GI50 in the assay on T47D cells was over 3000 nM; in the assay on VCaP cells it was under 500 nM; in assay [1], under 500 nM; in assay [2], over 3000 nM.
As to `Cc1sc2c(c1C)C(c1ccc(OC[C@H]3C[C@@]4(CCCN(c5ncc(C(=O)N[C@H]6C(C)(C)[C@H](Oc7ccc(C#N)c(Cl)c7)C6(C)C)cn5)C4)C3)cc1)=N[C@@H](C)c1nnc(C)n1-2` [Compound I-351], the GI50 in the assay with T47D cells was over 3000 nM; in the assay with VCaP cells it was under 500 nM; in assay [1] it was under 500 nM; in assay [2] it was over 3000 nM.
On to `Cc1sc2c(c1C)C(c1ccc(OC[C@@H]3CCCN(c4ncc(C(=O)N[C@H]5C(C)(C)[C@H](Oc6ccc(C#N)c(Cl)c6)C5(C)C)cn4)C3)cc1)=N[C@@H](C)c1nnc(C)n1-2` [Compound I-352], for which the GI50 in the assay on T47D cells was over 3000 nM; in the assay with VCaP cells, under 500 nM; in assay [1], under 500 nM; in assay [2], over 3000 nM.
As to `Cc1sc2c(c1C)C(c1ccc(CCC[C@@H]3CCCN(c4ncc(C(=O)N[C@H]5C(C)(C)[C@H](Oc6ccc(C#N)c(Cl)c6)C5(C)C)cn4)C3)cc1)=N[C@@H](C)c1nnc(C)n1-2` [Compound I-353], the GI50 in the assay on T47D cells is over 3000 nM; with VCaP cells, over 3000 nM; in assay [1] it was under 500 nM; in assay [2], over 3000 nM.
As for `Cc1sc2c(c1C)C(c1ccc(CCO[C@H]3CCCN(c4ncc(C(=O)N[C@H]5C(C)(C)[C@H](Oc6ccc(C#N)c(Cl)c6)C5(C)C)cn4)C3)cc1)=N[C@@H](C)c1nnc(C)n1-2` [Compound I-354], the GI50 in the assay on T47D cells was 1500 to 3000 nM; in the assay with VCaP cells, under 500 nM; in assay [1], under 500 nM; in assay [2], over 3000 nM.
As for `Cc1sc2c(c1C)C(c1ccc(N(C)CC(=O)N3CCC(c4ncc(C(=O)N[C@H]5C(C)(C)[C@H](Oc6ccc(C#N)c(Cl)c6)C5(C)C)cn4)CC3)cc1)=N[C@@H](Cc1ncco1)c1nnc(C)n1-2` [Compound I-355], the GI50 (with T47D cells; in the assay with VCaP cells; in assay [1]; in assay [2]) was over 3000 nM throughout.
Turning to `Cc1sc2c(c1C)C(c1ccc(N(C)CC(=O)N3CCC(c4ncc(C(=O)N[C@H]5C(C)(C)[C@H](Oc6ccc(C#N)c(Cl)c6)C5(C)C)cn4)CC3)cc1)=N[C@H](Cc1ncco1)c1nnc(C)n1-2` [Compound I-356], the GI50 in the assay on T47D cells is 500 to 1500 nM; with VCaP cells, under 500 nM; in assay [1] it was under 500 nM; in assay [2] it was over 3000 nM.
Regarding `Cc1sc2c(c1C)C(c1ccc(C(=O)N3CCN(CCc4ncc(C(=O)N[C@H]5C(C)(C)[C@H](Oc6ccc(C#N)c(Cl)c6)C5(C)C)cn4)CC3)cc1)=N[C@H](Cc1ncco1)c1nnc(C)n1-2` [Compound I-357], the GI50 was 1500 to 3000 nM in the assay with T47D cells, over 3000 nM in the assay with VCaP cells, 500 to 1500 nM in assay [1] and over 3000 nM in assay [2].
Consider `Cc1sc2c(c1C)C(c1ccc(CN3CC(=O)N4C[C@@H](c5ncc(C(=O)N[C@H]6C(C)(C)[C@H](Oc7ccc(C#N)c(Cl)c7)C6(C)C)cn5)C[C@H]4C3=O)cc1)=N[C@@H](Cc1ncco1)c1nnc(C)n1-2` [Compound I-358], for which the GI50 in the assay on T47D cells was 500 to 1500 nM; with VCaP cells, under 500 nM; in assay [1], under 500 nM; in assay [2] it was over 3000 nM.
`Cc1sc2c(c1C)C(c1ccc([C@H]3CCCCN3C(=O)[C@H]3CCCN(c4ncc(C(=O)N[C@H]5C(C)(C)[C@@H](Oc6ccc(C#N)c(Cl)c6)C5(C)C)cn4)C3)cc1)=N[C@@H](Cc1ncco1)c1nnc(C)n1-2` [Compound I-359]: the GI50 in the assay on T47D cells is over 3000 nM; in the assay on VCaP cells it was under 500 nM; in assay [1] it was under 500 nM; in assay [2], over 3000 nM.
In the case of `Cc1sc2c(c1C)C(c1ccc([C@@H]3CCCCN3C(=O)[C@H]3CCCN(c4ncc(C(=O)N[C@H]5C(C)(C)[C@@H](Oc6ccc(C#N)c(Cl)c6)C5(C)C)cn4)C3)cc1)=N[C@@H](Cc1ncco1)c1nnc(C)n1-2` [Compound I-360], the GI50 with T47D cells is over 3000 nM; with VCaP cells it was under 500 nM; in assay [1], under 500 nM; in assay [2], over 3000 nM.
Consider `Cc1sc2c(c1C)C(c1ccc(CN(C)C(=O)NCc3ncc(C(=O)N[C@H]4C(C)(C)[C@H](Oc5ccc(C#N)c(Cl)c5)C4(C)C)cn3)cc1)=N[C@@H](Cc1ncco1)c1nnc(C)n1-2` [Compound I-361], for which the concentration for 50% growth inhibition (GI50) in the assay with T47D cells was 1500 to 3000 nM; with VCaP cells, 1500 to 3000 nM; in assay [1], over 3000 nM; in assay [2] it was over 3000 nM.
Consider `Cc1sc2c(c1C)C(c1ccc(CCCN(C)C(=O)c3ncc(C(=O)N[C@H]4C(C)(C)[C@H](Oc5ccc(C#N)c(Cl)c5)C4(C)C)cn3)cc1)=N[C@@H](Cc1ncco1)c1nnc(C)n1-2` [Compound I-362], for which the 50% growth inhibitory concentration (GI50) was 500 to 1500 nM in the assay with T47D cells, under 500 nM in the assay on VCaP cells, under 500 nM in assay [1] and over 3000 nM in assay [2].
Regarding `Cc1sc2c(c1C)C(c1ccc(CC(=O)N3CCN(c4ncc(C(=O)N[C@H]5C(C)(C)[C@H](Oc6ccc(C#N)c(Cl)c6)C5(C)C)cn4)CC3)cc1)=N[C@@H](Cc1ncco1)c1nnc(C)n1-2` [Compound I-363], the GI50 in the assay with T47D cells was 500 to 1500 nM; in the assay with VCaP cells it was under 500 nM; in assay [1], under 500 nM; in assay [2] it was 500 to 1500 nM.
As to `Cc1sc2c(c1C)C(c1ccc(C(=O)N3CCC[C@@H](C(=O)c4ncc(C(=O)N[C@H]5C(C)(C)[C@H](Oc6ccc(C#N)c(Cl)c6)C5(C)C)cn4)C3)cc1)=N[C@H](Cc1ncco1)c1nnc(C)n1-2` [Compound I-364], the GI50 was over 3000 nM in the assay on T47D cells, over 3000 nM in the assay with VCaP cells, under 500 nM in assay [1] and over 3000 nM in assay [2].
Consider `Cc1sc2c(c1C)C(c1ccc(CCCC3CC4(C3)CN(c3ncc(C(=O)N[C@H]5C(C)(C)[C@H](Oc6ccc(C#N)c(Cl)c6)C5(C)C)cn3)C4)cc1)=N[C@@H](C)c1nnc(C)n1-2` [Compound I-365], for which the GI50 was under 500 nM in the assay with T47D cells, under 500 nM with VCaP cells, under 500 nM in assay [1] and over 3000 nM in assay [2].
With `Cc1sc2c(c1C)C(c1ccc(CCC[C@H]3CCCN(c4ncc(C(=O)N[C@H]5C(C)(C)[C@H](Oc6ccc(C#N)c(Cl)c6)C5(C)C)cn4)C3)cc1)=N[C@@H](C)c1nnc(C)n1-2` [Compound I-366], the GI50 with T47D cells was over 3000 nM; in the assay with VCaP cells, under 500 nM; in assay [1], under 500 nM; in assay [2], over 3000 nM.
As to `Cc1sc2c(c1C)C(c1ccc(CCO[C@@H]3CCCN(c4ncc(C(=O)N[C@H]5C(C)(C)[C@H](Oc6ccc(C#N)c(Cl)c6)C5(C)C)cn4)C3)cc1)=N[C@@H](C)c1nnc(C)n1-2` [Compound I-367], the GI50 in the assay on T47D cells was 500 to 1500 nM; in the assay on VCaP cells, under 500 nM; in assay [1], under 500 nM; in assay [2], over 3000 nM.
`Cc1sc2c(c1C)C(c1ccc(CC[C@H]3C[C@@]4(CCCN(c5ncc(C(=O)N[C@H]6C(C)(C)[C@H](Oc7ccc(C#N)c(Cl)c7)C6(C)C)cn5)C4)C3)cc1)=N[C@@H](C)c1nnc(C)n1-2` [Compound I-368]: the GI50 in the assay with T47D cells was under 500 nM; in the assay with VCaP cells, under 500 nM; in assay [1], under 500 nM; in assay [2], over 3000 nM.
